Earlier results in article PMC4512625, “Critical role of the SPAK protein kinase CCT domain in controlling blood pressure” (Human Molecular Genetics, 2015).

Columns and labels:
[1] = tested on: NKCC1 in the hypothalamic paraventricular nucleus; conditions: intracranial administration, spontaneously hypertensive rats
Excerpt: The altered shape of the arterial pressure waveform in our […] mice (Fig. 5B) is consistent with increased vascular compliance and reduced wave reflection in the periphery as compared with the wild-type animals. This may be explained in part by a diminished cardiac output arising from possible reductions in cardiac contractility owing to loss of NKCC1 activity in the heart ([49]) (Fig. 2B) and the lower heart rates of the […] mice (Fig. 5A), because augmentation is negatively correlated with heart rate in humans ([50]). It has also been previously shown that […] ...

[2] = tested on: human OSR1 CCT domain, Leu473 to Ala; conditions: mutant versus wild type
Excerpt: Consistent with this, mutation of Leu473 to Ala reduced binding of OSR1 to RFXI WNK4 peptide over 100-fold ([40]).

reduction of binding of OSR1 to RFXI WNK4 peptide by mutation of Leu473 to Ala [2] | Compound | heart rate [1] | sympathetic vasomotor tone [1]
 | CCCCNc1cc(C(=O)O)cc(S(N)(=O)=O)c1Oc1ccccc1 [bumetanide] | lower their heart rates | reduce sympathetic vasomotor tone
over 100 fold | GRFQVT [RFXI WNK4 peptide, RFXI motif-containing peptide derived from WNK4, complexed to the human OSR1 CCT domain] |  | 
